System: MCF-7
Assay: Cell cycle analysis by flow cytometry (propidium iodide)
Type: cell-based, human
Details: MCF7 and U2OS with siRNA knockdown; data not shown

O=c1[nH]cc(F)c(=O)[nH]1 [5-fluorouracil]
cell cycle arrest response (control): potent p53-dependent cell cycle arrest response

From article PMC4303209, “A novel phosphatidylinositol 3-kinase (PI3K) inhibitor directs a potent FOXO-dependent, p53-independent cell cycle arrest phenotype characterized by the differential induction of a subset of FOXO-regulated genes” (Breast Cancer Research : BCR, 2014)
